Patent US10519169B2, “3-(1H-pyrrolo[2,3-C]pyridin-2-yl)-1 H-pyrazolo[4,3-B]pyridines and therapeutic uses thereof” (Samumed, LLC, priority 2015, dated 2019)
pEC50: −log10 of the molar value.

Experiments:
[1] = system: Wnt activity (Sp5-Luc reporter, TCF/LEF binding sites) in SW480 colon carcinoma cells; assay: Wnt activity screening assay, Sp5-Luc reporter gene in SW480 cells; type: cell-based; conditions: Homo sapiens; for pEC50: overnight incubation; for inhibition at 10 µM: given for EC50 >10 μM, read-out: percent inhibition at 10 μM
Text: The screening assay for Wnt activity is described as follows. Reporter cell lines can be generated by stably transducing cancer cell lines (e.g., colon cancer) or primary cells (e.g., IEC-6 intestinal cells) with a lentiviral construct that includes a Wnt-responsive promoter driving expression of the firefly luciferase gene.
SW480 colon carcinoma cells were transduced with a lentiviral vector expressing luciferase with a human Sp5 promoter consisting of a sequence of eight TCF/LEF binding sites. SW480 cells stably expressing the Sp5-Luc reporter gene and a hygromycin resistance gene were selected by treatment with 150 μg/mL of hygromycin for 7 days. These stably transduced SW480 cells were expanded in cell culture and used for all further screening activities. Each compound was dissolved in DMSO as a 10 mM stock and used to prepare compound source plates. Serial dilution (1:3, 10-point dose-response curves starting from 10 μM) and compound transfer was performed using the ECHO 550 (Labcyte, Sunnyvale, Calif.) into 384-well white solid bottom assay plates (Greiner Bio-One) with appropriate DMSO backfill for a final DMSO concentration of 0.1%. For Sp5-Luc reporter gene assays, the cells were plated at 4,000 cells/well in 384-well plates with medium containing 1% fetal bovine serum and incubated overnight at 37° C. and 5% CO2. Following incubation, 20 μl of BrightGlo luminescence reagent (Promega) was added to each well of the 384-well assay plates. The plates were placed on an orbital shaker for 2 min and then luminescence was quantified using the Envision (Perkin Elmer) plate reader. Readings were normalized to DMSO only treated cells, and normalized activities were utilized for EC50 calculations using the dose-response log (inhibitor) vs. response-variable slope (four parameters) nonlinear regression feature available in GraphPad Prism 5.0 (or Dotmatics). For EC50 of >10 μM, the percent inhibition at 10 μM is provided.

IL-6 = IL-6 inhibition in LPS-stimulated THP-1 cells (HTRF); type: cell-based; conditions: Homo sapiens; for pEC50: LPS 500 ng/mL, 22 hours, IL6 HTRF; for inhibition at 10 µM: given for EC50 >10 μM, LPS, IL6, at 10 M [sic], read-out: percent inhibition at 10 M
Method: Human monocyte cell line (THP-1 cells; Catalog # TIB-202, ATCC, Manassas, Va.) were cultured in Roswell Park Memorial Institute (RPMI) 1640 Medium (Catalog #21870-100, Buffalo, N.Y.) with 1% L-glutamine, 1% HEPES, 1% Sodium Pyruvate, 2% Sodium Bicarbonate supplemented with 100 units/mL penicillin, 50 μg/mL streptomycin, 2-mercaptoethanol (0.05 mM) [basal medium] and 10% fetal bovine serum (Catalog #16140089, Life Technologies, Carlsbad, Calif.) at 37° C. and 5% CO2.
THP-1 cells were cultured in basal media with 1% FBS for 24 hours before the start of the assay. Each compound was dissolved in DMSO as a 10 mM stock and used to prepare compound source plates. Serial dilution (1:3, 10-point dose-response curves starting from 10 μM) and compound transfer was performed using the ECHO 550 (Labcyte, Sunnyvale, Calif.) into 384-well white low volume assay plates (Greiner Bio-One) with appropriate DMSO backfill for a final DMSO concentration of 0.1%. THP-1 cells were plated at 5000 cells/well in the 384-well plates and incubated at 37° C. for 2 h. 500 ng/mL of LPS was added after 2 hours and cells were incubated for another 22 hours at 37° C. Plates were spun in a centrifuge for 1 minute at […] and a mixture of anti-IL6 XL665, and anti-IL6 Cryptate diluted in reconstitution buffer (Cisbio Inc.) was added to each well. Following incubation for 3 hrs at room temperature, Homogeneous Time-Resolved Fluorescence (HTRF) was measured using the Envision (Perkin Elmer) at 665 nm and […]. The ratio of fluorescence at 665 nm to 620 nm was used as a readout for IL6 quantification. All samples were processed in duplicate. Readings were normalized to DMSO treated cells and normalized activities were utilized for EC50 calculations using the dose-response log (inhibitor) vs. response-variable slope (four parameters) nonlinear regression feature available in GraphPad Prism 5.0 (or Dotmatics). For EC50 of >10 μM, the percent inhibition at […] is provided.

Row | Compound | pEC50 [1] | pEC50 (IL-6) | inhibition at 10 µM (IL-6) [%] | inhibition at 10 µM [1] [%]
1 | Fc1cccc(-c2cncc3[nH]c(-c4n[nH]c5ccc(-c6cccnc6)nc45)cc23)c1 [Compound 4, 3-(4-(3-Fluorophenyl)-1H-pyrrolo[2,3-c]pyridin-2-yl)-5-(pyridin-3-yl)-1H-pyrazolo[4,3-b]pyridine] | 6.59 | 6.58 |  | 
2 | CN(C)c1cncc(-c2ccc3[nH]nc(-c4cc5c(-c6cccc(F)c6)cncc5[nH]4)c3n2)c1 [Compound 7, 5-(3-(4-(3-Fluorophenyl)-1H-pyrrolo[2,3-c]pyridin-2-yl)-1H-pyrazolo[4,3-b]pyridin-5-yl)-N,N-dimethylpyridin-3-amine] | 6.29 | 7.42 |  | 
3 | Fc1cccc(-c2cncc3[nH]c(-c4n[nH]c5ccc(-c6cncc(CN7CCCCC7)c6)nc45)cc23)c1 [Compound 15, 3-(4-(3-Fluorophenyl)-1H-pyrrolo[2,3-c]pyridin-2-yl)-5-(5-(piperidin-1-ylmethyl)pyridin-3-yl)-1H-pyrazolo[4,3-b]pyridine] | 5.43 | < 5.00 | 51.3 | 
4 | Cc1ccncc1-c1ccc2[nH]nc(-c3cc4c(-c5ccc(F)cc5)cncc4[nH]3)c2n1 [Compound 33, 3-(4-(4-Fluorophenyl)-1H-pyrrolo[2,3-c]pyridin-2-yl)-5-(4-methylpyridin-3-yl)-1H-pyrazolo[4,3-b]pyridine] | < 5.00 | < 5.00 | 37.8 | 21.5
5 | O=C(Nc1cncc(-c2ccc3[nH]nc(-c4cc5c(-c6ccc(F)cc6)cncc5[nH]4)c3n2)c1)c1ccccc1 [Compound 39, N-(5-(3-(4-(4-Fluorophenyl)-1H-pyrrolo[2,3-c]pyridin-2-yl)-1H-pyrazolo [4,3-b]pyridin-5-yl)pyridin-3-yl)benzamide] | 5.46 | < 5.00 | 33.1 | 
6 | Fc1ccc(-c2cncc3[nH]c(-c4n[nH]c5ccc(-c6cncc(CN7CCC(F)(F)C7)c6)nc45)cc23)cc1 [Compound 54, 5-(5-((3,3-Difluoropyrrolidin-1-yl)methyl)pyridin-3-yl)-3-(4-(4-fluorophenyl)-1H-pyrrolo[2,3-c]pyridin-2-yl)-1H-pyrazolo[4,3-b]pyridine] | 6.12 | 6.75 |  | 
7 | CN(C)Cc1cncc(-c2ccc3[nH]nc(-c4cc5c(-c6ccccc6F)cncc5[nH]4)c3n2)c1 [Compound 69, 1-(5-(3-(4-(2-Fluorophenyl)-1H-pyrrolo[2,3-c]pyridin-2-yl)-1H-pyrazolo [4,3-b]pyridin-5-yl)pyridin-3-yl)-N,N-dimethylmethanamine] | 5.82 | 5.94 |  | 
8 | Cc1ccncc1-c1ccc2[nH]nc(-c3cc4c(-c5cccnc5)cncc4[nH]3)c2n1 [Compound 89, 5-(4-Methylpyridin-3-yl)-3-(4-(pyridin-3-yl)-1H-pyrrolo[2,3-c]pyridin-2-yl)-1H-pyrazolo[4,3-b]pyridine] | < 5.00 | 6.37 |  | 35.4
9 | FC1(F)CCN(Cc2cncc(-c3ccc4[nH]nc(-c5cc6c(-c7cccnc7)cncc6[nH]5)c4n3)c2)C1 [Compound 110, 5-(5-((3,3-Difluoropyrrolidin-1-yl)methyl)pyridin-3-yl)-3-(4-(pyridin-3-yl)-1H-pyrrolo[2,3-c]pyridin-2-yl)-1H-pyrazolo[4,3-b]pyridine] | 5.41 | 6.42 |  | 
10 | Nc1cncc(-c2ccc3[nH]nc(-c4cc5c(-c6ccncc6)cncc5[nH]4)c3n2)c1 [Compound 115, 5-(3-(4-(Pyridin-4-yl)-1H-pyrrolo[2,3-c]pyridin-2-yl)-1H-pyrazolo[4,3-b]pyridin-5-yl)pyridin-3-amine] | < 5.00 | 5.99 |  | 30.1
11 | c1cc(-c2cncc3[nH]c(-c4n[nH]c5ccc(-c6cncc(CN7CCCCC7)c6)nc45)cc23)ccn1 [Compound 127, 5-(5-(Piperidin-1-ylmethyl)pyridin-3-yl)-3-(4-(pyridin-4-yl)-1H-pyrrolo[2,3-c]pyridin-2-yl)-1H-pyrazolo[4,3-b]pyridine] | < 5.00 | 5.54 |  | 29.6
